Test results published in the supplement of paper PMC10331698.
± gives the standard deviation of the averaged measurements.

Tests used:
Assay in all cases: LOEC (log10 uM (lowest observed effect concentration))
[1] = compound: OCC(F)(F)C(F)(F)C(F)(F)C(F)(F)C(F)(F)C(F)(F)F [6:1 Fluorotelomer alcohol]
Procedure: (§1)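 BioMAP Diversity Plus panel in human primary cell co-cultures, 4 concentrations in duplicate blinded samples. Responses are log10 fold change versus DMSO control, processed with tcpl v2.1.0. A hit is called when responses at any concentration exceed the cutoff (the larger of 3*bmad or log10(1.2)); the lowest observed effect concentration (modl_ga, log10 uM) is reported for hits.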

[2] = compound: FC(F)(I)C(F)(F)C(F)(F)C(F)(F)C(F)(F)C(F)(F)I [1,6-Diiodoperfluorohexane]
Procedure: as §1

[3] = compound: OCCC(F)(F)C(F)(F)C(F)(F)C(F)(F)C(F)(F)C(F)(F)C(F)(F)C(F)(F)F [8:2 Fluorotelomer alcohol]
Procedure: as §1

[4] = compound: OCCCC(F)(F)C(F)(F)C(F)(F)C(F)(F)C(F)(F)C(F)(F)C(F)(F)C(F)(F)F [3-(Perfluorooctyl)propanol]
Procedure: as §1

[5] = compound: OCC(F)(F)C(F)(F)C(F)(F)C(F)(F)C(F)(F)C(F)(F)C(F)(F)C(F)(F)C(F)(F)C(F)(F)C(F)(F)F [11:1 Fluorotelomer alcohol]
Procedure: as §1

[6] = compound: C=CC(=O)OCC(F)(F)C(F)(F)C(F)(F)C(F)(F)C(F)(F)C(F)(F)C(F)(F)C(F)F [1H,1H,9H-Perfluorononyl acrylate]
Procedure: as §1

[7] = compound: O=C(CC(=O)C(F)(F)C(F)(F)C(F)(F)F)c1cccs1 [(Perfluorobutyryl)-2-thenoylmethane]
Procedure: as §1

[8] = compound: OC(C(F)(F)F)(C(F)(F)F)C(O)(C(F)(F)F)C(F)(F)F [Perfluoropinacol]
Procedure: as §1

[9] = compound: C=CC(=O)OCC(F)(F)C(F)(F)C(F)(F)C(F)(F)COC(=O)C=C [1H,1H,6H,6H-Perfluorohexane-1,6-diol diacrylate]
Procedure: as §1

[10] = compound: OCC(F)(F)C(F)(F)C(F)(F)C(F)(F)C(F)(F)C(F)(F)C(F)(F)C(F)(F)CO [1H,1H,10H,10H-Perfluorodecane-1,10-diol]
Procedure: as §1

[11] = compound: Cc1ccc(S(=O)(=O)OCC(F)(F)C(F)(F)C(F)(F)C(F)(F)C(F)(F)C(F)F)cc1 [1H,1H,7H-Perfluoroheptyl 4-methylbenzenesulfonate]
Procedure: as §1

[12] = compound: FC(F)(F)C(F)(F)C(F)(F)C(F)(F)CCI [1H,1H,2H,2H-Perfluorohexyl iodide]
Procedure: as §1

[13] = compound: O=C(O)C(F)(F)C(F)(F)C(F)(F)C(F)(F)C(F)(F)C(F)(F)C(F)(F)F [Ammonium perfluorooctanoate]
Procedure: as §1

[14] = compound: O=C(O)C(F)(F)C(F)(F)C(F)(F)C(F)(F)C(F)(F)C(F)(F)C(F)(F)F [Perfluorooctanoic acid]
Procedure: as §1

[15] = compound: CN(Cc1cnc2nc(N)nc(N)c2n1)c1ccc(C(=O)N[C@@H](CCC(=O)O)C(=O)O)cc1 [Methotrexate]
Procedure: as §1

[16] = compound: O=S(=O)(OCC(F)(F)F)C(F)(F)C(F)(F)C(F)(F)C(F)(F)F [2,2,2-Trifluoroethyl perfluorobutanesulfonate]
Procedure: as §1

[17] = compound: C=CC(=O)OCCC(F)(F)C(F)(F)C(F)(F)C(F)(F)C(F)(F)C(F)(F)C(F)(F)C(F)(F)F [8:2 Fluorotelomer acrylate]
Procedure: as §1

[18] = compound: O=P(O)(O)CCC(F)(F)C(F)(F)C(F)(F)C(F)(F)C(F)(F)C(F)(F)F [2-(Perfluorohexyl)ethylphosphonic acid]
Procedure: as §1

Row | Test System | LOEC (log10 uM) [1] | LOEC (log10 uM) [2] | LOEC (log10 uM) [3] | LOEC (log10 uM) [4] | LOEC (log10 uM) [5] | LOEC (log10 uM) [6] | LOEC (log10 uM) [7] | LOEC (log10 uM) [8] | LOEC (log10 uM) [9] | LOEC (log10 uM) [10] | LOEC (log10 uM) [11] | LOEC (log10 uM) [12] | LOEC (log10 uM) [13] | LOEC (log10 uM) [14] | LOEC (log10 uM) [15] | LOEC (log10 uM) [16] | LOEC (log10 uM) [17] | LOEC (log10 uM) [18]
1 | 3C Proliferation down | 1.78 | 1.3 | 1.3 | 0.845 | -0.96 ± 0.37 | 1.3 | 0.845 | 0.845 | 0.573 ± 0.39 | 1.04 ± 1 |  |  |  |  |  |  |  | 
2 | 3C SRB down |  | 1.3 | 1.3 | 1.3 | -0.222 |  | 1.3 | 1.3 | 1.3 |  | 1.78 |  |  |  |  |  |  | 
3 | 4H Eotaxin3 down |  | 1.3 | 1.54 ± 0.34 | 1.3 |  |  | 1.3 | 1.3 | 1.3 |  |  | 1.78 |  |  |  |  |  | 
4 | 4H Pselectin up |  |  |  |  |  |  |  |  |  |  | 1.78 |  |  |  |  |  |  | 
5 | BE3C IP10 down |  | 1.54 ± 0.34 | 1.07 ± 0.32 | 1.3 |  |  | 1.3 | 1.3 | 1.78 | 1.3 |  |  | 1.78 | 1.78 |  |  |  | 
6 | BE3C MIG down | 1.78 | 1.78 | 1.54 ± 0.34 | 1.78 |  |  | 1.3 | 1.78 | 1.78 | 1.78 |  |  |  |  |  |  |  | 
7 | BE3C MMP1 up |  |  |  |  |  |  |  |  | 1.3 |  |  |  | 1.3 | 1.78 |  |  |  | 
8 | BF4T MCP1 down |  | 0.845 | 1.3 | 1.3 |  |  | 1.07 ± 0.32 | 1.78 | 1.3 | 1.07 ± 0.32 | 1.3 |  |  |  |  |  |  | 
9 | BT Bcell Proliferation down |  | 1.54 ± 0.34 | 1.78 | 1.3 | -0.96 ± 0.37 | 1.78 | 1.3 | 1.54 ± 0.34 | 0.845 | 1.78 |  |  |  |  | 0 |  |  | 
10 | BT sIgG down |  | 1.78 | 1.78 | 1.78 |  |  | 1.3 | 0.845 | 0.845 | 1.78 |  |  |  |  | 0 |  |  | 
11 | BT xIL17F down | 1.78 | 1.54 ± 0.34 | 1.78 | 1.3 |  | 1.3 | 1.3 | 1.54 ± 0.34 | 0.573 ± 0.39 | 1.78 |  |  |  |  |  |  |  | 
12 | BT xTNFa down | 1.78 | 1.3 | 1.54 ± 0.34 | 1.3 |  | 1.3 | 1.3 | 1.78 | 0.301 | 1.78 |  |  |  |  |  |  |  | 
13 | CASM3C Proliferation down | 1.78 | 0.845 | 1.3 | 1.3 |  |  | 0.801 ± 0.71 | 1.3 | 1.3 | 1.78 |  |  |  |  |  |  |  | 
14 | IMphg IL8 up |  |  | 1.78 |  |  |  | 1.78 | 1.07 ± 0.32 |  |  |  |  | 1.78 | 1.78 |  |  |  | 
15 | IMphg IL10 down |  | 0.845 | 1.07 ± 0.32 | 1.3 |  |  | 1.3 | 1.3 | 1.3 | 1.54 ± 0.34 | 1.07 ± 0.32 |  |  | 1.78 |  |  |  | 
16 | IMphg MIP1a down |  | 1.54 ± 0.34 |  | 1.54 ± 0.34 |  |  |  |  |  | 1.78 |  |  |  |  |  | 1.54 ± 0.34 |  | 
17 | KF3CT IL8 down |  | 1.07 ± 0.32 |  | 1.3 |  |  |  |  | 1.3 | 1.78 | 1.3 |  |  |  |  |  | 1.54 ± 0.34 | 

Row | Test System | LOEC (log10 uM) [1] | LOEC (log10 uM) [2] | LOEC (log10 uM) [3] | LOEC (log10 uM) [4] | LOEC (log10 uM) [5] | LOEC (log10 uM) [6] | LOEC (log10 uM) [7] | LOEC (log10 uM) [8] | LOEC (log10 uM) [9] | LOEC (log10 uM) [10] | LOEC (log10 uM) [11] | LOEC (log10 uM) [12] | LOEC (log10 uM) [13] | LOEC (log10 uM) [14] | LOEC (log10 uM) [15] | LOEC (log10 uM) [16] | LOEC (log10 uM) [17] | LOEC (log10 uM) [18]
18 | KF3CT MMP9 down |  | 0.845 | 1.07 ± 0.32 | 1.3 |  |  | 0.845 | 1.78 | 1.3 |  |  |  |  |  |  |  | 1.54 ± 0.34 | 
19 | LPS CD69 down |  | 1.78 | 1.07 ± 0.32 | 1.54 ± 0.34 |  |  |  | 1.07 ± 0.32 | 1.3 |  |  |  | 1.78 |  |  |  |  | 
20 | LPS IL1a down |  | 1.3 | 1.3 | 0.845 | -0.222 |  |  |  | 1.3 |  |  |  |  |  |  | 1.54 ± 0.34 |  | 
21 | LPS TNFa down |  | 1.3 | 1.78 | 0.573 ± 0.39 |  |  |  |  | 1.3 |  |  |  |  |  |  | 1.78 |  | 
22 | MyoF CollagenIV up |  |  |  |  |  |  |  | 1.3 |  |  |  |  | 1.78 | 1.78 |  |  |  | 
23 | SAg Proliferation down |  | 1.3 | 1.3 | 1.3 | -0.96 ± 0.37 | 1.3 | 0.845 | 1.3 | 0.845 |  |  | 1.78 |  |  | 0.477 |  |  | 
24 | SAg SRB down |  | 1.78 | 1.3 | 1.3 |  |  | 1.3 | 1.3 | 1.3 |  | 1.78 |  |  |  |  |  |  | 
25 | hDFCGF CollagenIII down | 1.31 ± 0.66 | 0.845 | 1.3 | 1.3 |  |  | 1.3 | 1.78 |  | 1.78 |  |  | 1.78 |  |  |  |  | 
26 | hDFCGF IP10 down | 1.78 | 0.845 | 1.3 | 0.845 |  | 1.78 | 1.3 | 1.3 | 0.301 | 1.78 |  |  |  |  |  | 1.78 |  | 
27 | hDFCGF ITAC down |  | 0.845 | 1.3 | 0.845 |  | 1.54 ± 0.34 | 1.3 | 0.801 ± 0.71 | 0.301 | 1.78 |  | 1.78 |  |  |  | 1.78 |  | 
28 | hDFCGF MCP1 down |  | 0.845 | 1.3 | 0.845 |  |  | 1.3 |  | 0.845 | 1.54 ± 0.34 | 1.07 ± 0.32 |  |  |  |  |  |  | 
29 | hDFCGF MCSF down | 1.78 | 0.845 | 1.3 | 0.845 |  | 1.54 ± 0.34 |  | 1.3 | 0.573 ± 0.39 | 1.78 |  |  |  |  |  |  |  | 
30 | hDFCGF MIG down |  | 0.845 | 1.3 | 1.07 ± 0.32 |  | 1.54 ± 0.34 | 1.3 | 1.78 | 0.301 | 1.78 |  | 1.78 |  |  |  |  |  | 
31 | hDFCGF Proliferation down | 1.78 | 0.301 | 0.845 | 0.845 |  | 1.3 | 0.845 | 0.845 | 0.301 | 1.54 ± 0.34 |  |  |  |  |  |  |  | 
32 | hDFCGF Proliferation up |  |  |  |  |  |  |  |  |  |  |  |  |  | 1.3 |  |  |  | 1.78
33 | hDFCGF TIMP2 down |  |  | 0.801 ± 0.71 | 1.3 |  |  | 1.07 ± 0.32 | 1.3 | 1.07 ± 0.32 |  |  | 1.78 |  |  |  |  |  | 
34 | hDFCGF VCAM1 down | 1.78 | 0.845 | 1.3 | 0.845 |  | 1.3 |  | 1.3 | 0.301 | 1.54 ± 0.34 |  | 1.78 |  |  |  |  |  | 
